This data set can be described thus: in vitro. As to conditions: human, hela cells, % viability.
Take `COc1cc(OC)c(NC(=O)c2c(-c3ccccc3)noc2C)cc1Cl` [CBK268167]: the viability (commonly a read-out of living cells in per cent, often relative to untreated cells) at 28.5 h, 10 µM came out at 101%.
As for `COc1ccc(Cl)cc1NC(=O)NCCN1CCCCC1` [CBK268169], the figure is 112%; as for `O=C(Nc1cccc(S(=O)(=O)N2CCOCC2)c1)c1cc2ccccc2oc1=O` [CBK268170], 107%.
As to `O=C(O)C1C2C=CC(O2)C1C(=O)Nc1ccc(S(=O)(=O)N2CCc3ccccc32)cc1` (stereo not shown) [CBK268176], the viability at 28.5 h, 10 µM turned out to be 91.1%.
As for `Cc1cccc(Cn2cnc(NC(=O)COc3ccc([N+](=O)[O-])c(C)c3)n2)c1` [CBK268177], the viability at 28.5 h, 10 µM came out at 118%.
As for `CCCc1cc(C(N)=O)c(NC(=O)c2sc3ccccc3c2Cl)s1` [CBK268178], the figure is 103%.
To `COc1cc(NS(=O)(=O)c2ccc(NC(=O)c3ccc(C)o3)cc2)nc(OC)n1` [CBK268182] belongs 91.6%; to `Cc1noc(C)c1C(=O)Nc1ccc(S(=O)(=O)NCCc2ccccc2)cc1` [CBK268183], 92.8%; to `COc1ccc(C(CC(=O)c2ccc(C)cc2)Nc2ccc([N+](=O)[O-])cc2)cc1` (stereo not shown) [CBK268187], 92.2%.
For the compound `N/C(=N\OC(=O)c1ccccc1CCc1ccccc1)c1cccnc1` [CBK268188], the viability at 28.5 h, 10 µM is 91.5%.
As for `O=C(Nc1cc(Br)ccc1O)c1cnn2c(C(F)(F)F)cc(-c3cccs3)nc12` [CBK268190], the figure is 96%; as for `CN(C)S(=O)(=O)N(CC(=O)NCC1CCCO1)c1ccccc1` (stereo not shown) [CBK268192], 103%; as for `Cc1ccc(Cl)cc1NC(=O)c1cc(NC(=O)C2C3C=CC(C3)C2C(=O)O)ccc1N1CCCCC1` (stereo not shown) [CBK268194], 85.9%.
As for `O=C(NCc1ccccn1)c1cnn2c(C(F)(F)F)cc(-c3cccs3)nc12` [CBK268195], the figure is 99.9%; as for `O=S(=O)(NCc1nc(-c2ccccc2)no1)c1ccc(F)cc1` [CBK268198], 93.3%; as for `Cc1cc2c(=O)n(Cc3ccco3)c(SCc3nc4ccccc4[nH]3)nc2s1` [CBK268202], 88.2%.
As for `O=C(COc1ccc(S(=O)(=O)N2CCCCC2)cc1)Nc1ccc2c(c1)OCCO2` [CBK268205], the figure is 102%.
With `COC(=O)Nc1ncc(CN2CCCCC2)s1` [CBK268208], the viability at 28.5 h, 10 µM turned out to be 111%.
As for `Fc1ccc(COc2ccc3ccccc3c2CNc2nn[nH]n2)cc1` [CBK268211], the figure is 86.9%; as for `CCc1ccc(OC)c(S(=O)(=O)N2CCOCC2)c1` [CBK268214], 117%.
In the case of `CC(=O)NCCc1nc2cc(NC(=O)Nc3ccccc3)ccc2n1C` [CBK268216], the viability at 28.5 h, 10 µM was 103%.
To `Cc1ccc(SCc2ccc(C(=O)Nc3ccccc3C(=O)N3CCCC3)cc2)cc1` [CBK268217] belongs 112%; to `COc1ccccc1-c1nn2c(Cn3cnc4ccccc43)nnc2s1` [CBK268218], 93%; to `CSc1nc2ccc(S(=O)(=O)NCCOc3ccc(Cl)cc3)cc2s1` [CBK268219], 81.9%.
Consider `COc1ccc(S(=O)(=O)N(C)CC(=O)N2CCN(Cc3ccccc3)CC2)cc1C` [CBK268221], for which the viability at 28.5 h, 10 µM was found to be 99.6%.
`COc1ccc(C)cc1NC(=O)CN(c1ccccc1)S(=O)(=O)c1ccc(F)cc1` [CBK268223]: the viability at 28.5 h, 10 µM was 99.1%.
For the compound `CCn1nnnc1NCc1ccc(OCc2ccc(F)cc2Cl)c(OC)c1` [CBK268224], the viability at 28.5 h, 10 µM was 112%.
Take `Cc1ccc(CCNc2c([N+](=O)[O-])nn(-c3ccc4c(c3)OCCO4)[n+]2[O-])cc1` [CBK268225]: the viability at 28.5 h, 10 µM stood at 103%.
As for `Cc1nn(Cc2ccc(F)cc2)c(C)c1NC(=O)c1cnn2c(C(F)(F)F)cc(-c3ccccc3)nc12` [CBK268231], the figure is 96.7%; as for `CC(C)c1ccc(NC(=O)CSc2nnc(CN3CCOCC3)n2C)cc1` [CBK268235], 93.7%; as for `COC(=O)c1ccc2c(=O)n(CCc3ccc(S(N)(=O)=O)cc3)c(=S)[nH]c2c1` [CBK268238], 91.2%.
To `O=C(CSc1ccc2ccccc2c1)Nc1ccc(Cl)c(C(=O)O)c1` [CBK268239] belongs 103%; to `O=C(O)CCN1C(=O)c2ccc(NC(=O)Cc3cccs3)cc2C1=O` [CBK268240], 95.9%; to `CCc1cc(-c2n[nH]c(C(=O)O)c2-c2nc(C)cs2)c(O)cc1O` [CBK268247], 99.4%.
As for `CN1CCN(C(=O)COc2ccc(S(=O)(=O)Nc3ccc(Cl)cc3)cc2)CC1` [CBK268248], the figure is 102%.
With `CC(Cc1c[nH]c2ccccc12)NC(=N)NC(=N)N` (stereo not shown) [CBK268251C], the viability at 28.5 h, 10 µM amounted to 91.7%.
To `COc1cc(NC(=O)COc2cccc3ccccc23)c(C(=O)O)cc1OC` [CBK268253] belongs 76.6%; to `Cc1cc(C)cc(Nc2c([N+](=O)[O-])nn(-c3cccc(Cl)c3)[n+]2[O-])c1` [CBK268254], 105%; to `CCNS(=O)(=O)c1ccc(CCC(=O)Nc2ccc3c(c2)OCCO3)cc1` [CBK268255], 109%.
For the compound `COc1ccccc1NC(=O)Cn1cc(C(=O)c2cccs2)c2ccccc21` [CBK268256], the viability at 28.5 h, 10 µM came to 98.6%.
Consider `CCNS(=O)(=O)c1ccc(NS(=O)(=O)Cc2ccccc2)cc1` [CBK268257], for which the viability at 28.5 h, 10 µM turned out to be 100%.
As for `Cc1ccc(-c2nnc3sc(-c4cnccn4)nn23)cc1` [CBK268258], the viability at 28.5 h, 10 µM is 98.9%.
As for `Cn1c(CN2CCN(C(=O)Nc3ccccc3)CC2)nc2cc([N+](=O)[O-])ccc21` [CBK268260], the figure is 91.8%; as for `c1csc(-c2nn3c(Cn4cnc5ccccc54)nnc3s2)c1` [CBK268262], 87.9%; as for `O=S(=O)(Nc1ccc(Cc2ccncc2)cc1)N1CCCC1` [CBK268263], 112%.
For the compound `COc1ccc(-c2noc(CSc3nc4sc(C)c(C)c4c(=O)n3-c3ccccc3)n2)cc1` [CBK268264], the viability at 28.5 h, 10 µM is 100%.
As for `COc1ccc(-c2nc(NCc3ccccc3)n(C(=O)c3ccc([N+](=O)[O-])cc3)n2)cc1` [CBK268265], the figure is 92.8%; as for `Clc1ccc2nc(SCc3csc(Nc4ccccc4)n3)oc2c1` [CBK268269], 100%; as for `COc1ccc([N+](=O)[O-])cc1NC(=O)CSCc1ccc(Br)cc1` [CBK268272], 90.9%.
To `O=[N+]([O-])c1ccc(/C=C/c2nn3c(Cn4cnc5ccccc54)nnc3s2)cc1` [CBK268273] belongs 104%; to `COC(=O)c1ccc(NC(=O)CN2CCC(C(N)=O)(N3CCCCC3)CC2)cc1` [CBK268275], 95.5%.
On to `Nc1nonc1C(=O)NCCNc1ccc([N+](=O)[O-])cn1` [CBK268279], for which the viability at 28.5 h, 10 µM came to 97.7%.
Take `O=C(Nc1ccc(O)c(C(=O)O)c1)c1ccc2c(c1)C(=O)N(CC1CCCO1)C2=O` (stereo not shown) [CBK268280]: the viability at 28.5 h, 10 µM turned out to be 101%.
For the compound `Cn1c(/C=C/C=C/CN2CCN(Cc3ccccc3)CC2)nc2ccc([N+](=O)[O-])cc21` [CBK268281], the viability at 28.5 h, 10 µM was 91.2%.
In the case of `O=C(O)c1cc(C(=O)O)n(Cc2ccc(Cl)cc2Cl)n1` [CBK268283], the viability at 28.5 h, 10 µM came out at 103%.
Take `CN1CCN(NC(=O)C23CCC(C)(C(=O)O2)C3(C)C)CC1` (stereo not shown) [CBK268285]: the viability at 28.5 h, 10 µM was determined as 99.1%.
In the case of `Cc1cc(S(=O)(=O)N2CCCC2)ccc1OCC(=O)O` [CBK268289], the viability at 28.5 h, 10 µM was 89%.
To `Cc1cc2c(=O)n(Cc3ccco3)c(SCc3cc(O)[nH]n3)nc2s1` [CBK268291] belongs 94.3%; to `COc1ccc(C(=O)NC(=S)Nc2ccccc2N2CCN(C)CC2)cc1[N+](=O)[O-]` [CBK268292C], 87%.
To `O=C(COc1ccc(S(=O)(=O)N2CCc3ccccc32)cc1Cl)NCc1ccco1` [CBK268293] belongs 102%; to `O=C(CN1C(=O)COc2ccc(Cl)cc21)Nc1ccc2[nH]c(=O)[nH]c2c1` [CBK268295], 111%; to `S=C(NCCc1ccccn1)NCCN1CCOCC1` [CBK268296], 101%.
As for `Cc1cc(C)nc(SCC(=O)Nc2ccc(S(=O)(=O)NC3CCCCC3)cc2)n1` [CBK268299], the figure is 86%.
For `CCC(c1nc2ccccc2c(=O)n1-c1cccnc1)N1C(=O)c2ccccc2C1=O` (stereo not shown) [CBK268300], the viability at 28.5 h, 10 µM was 99.1%.
For the compound `O=c1c2c3c(sc2nc(SCc2cc(O)[nH]n2)n1Cc1ccco1)CCC3` [CBK268301], the viability at 28.5 h, 10 µM is 99.4%.
As for `Cc1cc(C)c(NC(=O)CSCc2cc(O)[nH]n2)c(Cl)c1` [CBK268302], the figure is 93.8%.
As for `CN1CCN(C(=O)CCc2nc(-c3ccc(Cl)cc3)no2)CC1` [CBK268304], the viability at 28.5 h, 10 µM came to 117%.
Regarding `O=c1c2c3c(sc2nc(SCc2nc4ccccc4[nH]2)n1Cc1ccco1)CCC3` [CBK268306], the viability at 28.5 h, 10 µM is 104%.
Turning to `Cc1cc(C)c2c(CC(=O)NCCCN3CCOCC3)coc2c1` [CBK268307], the viability at 28.5 h, 10 µM came to 96.8%.
As for `CCOc1ccc(NC(=O)C(C)O)c(NS(=O)(=O)c2ccc3ccccc3c2)c1` (stereo not shown) [CBK268309], the figure is 87.6%; as for `CS(=O)(=O)N1CCc2cc(S(=O)(=O)N3CCN(c4ccc([N+](=O)[O-])c(NCc5ccccc5)c4)CC3)ccc21` [CBK268311], 102%; as for `Cn1c(CN2CCCC2)nc2cc(NC(=O)c3cccc([N+](=O)[O-])c3)ccc21` [CBK268316], 98.6%.
On to `CN(C)S(=O)(=O)N(CC(=O)NCc1ccncc1)c1ccccc1` [CBK268322], for which the viability at 28.5 h, 10 µM turned out to be 111%.
As for `N=c1c2c3c(sc2ncn1CCCN1CCOCC1)CCCC3` [CBK268323], the figure is 94.6%.
In the case of `O=C(CCS(=O)(=O)Cc1ccccc1)n1nnc2ccccc21` [CBK268324], the viability at 28.5 h, 10 µM came to 99.4%.
Consider `O=C(O)C1CCN(c2ncnc3sc4c(c23)CCC4)CC1` [CBK268326], for which the viability at 28.5 h, 10 µM was 98.9%.
